In patent EP4786486A1, “PEPTIDES FOR TREATING CARDIAC DISEASES” (Universidad Complutense De Madrid, priority 2023, dated 2025):
Where no end group is shown, it is not given here.

System: human minimal promoter of the SCN5A gene
Assay: Luciferase assay in hEK-293 cells, minimal promoter of SCN5A
Type: cell-based
Conditions: hEK-293, co-transfected with cDNA SEQ ID NO: 5, 48 hours
Procedure: 48 hours after transfection, luciferase assays were performed using the LightSwitch Luciferase Assay reagent, also from Active Motif, and a Berthold luminometer. All assays were performed in triplicate and each point represents the mean of each technical triplicate.

RFTRESLAAIE [DECA-11, RFTRESLAAIE]
effect on the minimal promoter of the human SCN5A gene: no significant effect
